The source of these data is ChEMBL document CHEMBL1155936, “Allosteric FBPase inhibitors gain 10(5) times in potency when simultaneously binding two neighboring AMP sites” (Bioorg Med Chem Lett, 2008).

Data set [1] has as its target T1, Fructose-1,6-bisphosphatase 1 (Homo sapiens, UniProt P09467).
T1 sequence (P09467 whole entry): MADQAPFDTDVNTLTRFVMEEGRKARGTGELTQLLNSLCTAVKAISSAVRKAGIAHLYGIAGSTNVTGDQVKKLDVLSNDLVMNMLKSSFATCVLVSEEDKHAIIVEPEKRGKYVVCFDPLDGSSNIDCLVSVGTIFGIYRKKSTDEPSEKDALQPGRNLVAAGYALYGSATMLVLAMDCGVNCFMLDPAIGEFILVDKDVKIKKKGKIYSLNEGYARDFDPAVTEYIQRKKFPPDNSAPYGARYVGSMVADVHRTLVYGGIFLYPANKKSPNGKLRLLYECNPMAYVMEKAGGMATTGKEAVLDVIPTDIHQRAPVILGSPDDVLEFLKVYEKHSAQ
The experiment in a line: Inhibition of human liver fructose-1,6-bisphosphatase.

Data set [2] has as its target T1, Fructose-1,6-bisphosphatase 1. The experiment in a line: Inhibition of human liver fructose-1,6-bisphosphatase in presence of fructose-2,6-bisphosphate.
Data set [3] in a line: Dissociation constant, pKa of the compound. The data set is classed as physicochemical.
The nature of data set [4]: Lipophilicity, Log D at pH 7.4. The data set is classed as physicochemical. The following applies: buffer.
Data set [5] is described as follows: Bioavailability in mouse at 9.68 mg/kg, po. The data set is classed as ADME, organism-based. The settings on record: in vivo.
Data set [6] is described as follows: Half life in mouse at 9.68 mg/kg, po. The settings on record: in vivo. The data set is classed as ADME, organism-based. The arrangement: dose 9.68 mg/kg, route oral.
Data set [7] can be described thus: Bioavailability in mouse at 10 mg/kg, po. The data set is classed as ADME, organism-based. The following applies: in vivo.
Data set [8] is described as follows: Half life in mouse at 10 mg/kg, po. The data set is classed as ADME, organism-based. The arrangement: dose 10 mg/kg, route oral. The settings on record: in vivo.

A word on the IC50: it is the point on the concentration scale where inhibition reaches its midpoint. Take `Cc1cccc(S(=O)(=O)NC(=O)NCC/C=C/CCNC(=O)NS(=O)(=O)c2cccc(C)c2)c1`: the half-inhibitory concentration (IC50) came to 0.068 µM in data set [1] and 0.028 µM in data set [2].
Taken in the same sequence, the figures for `Cc1cccc(S(=O)(=O)NC(=O)NCCC#CCCNC(=O)NS(=O)(=O)c2cccc(C)c2)c1` were 0.095 µM and 0.012 µM.
For `O=C(NC[C@H]1CC[C@H](CNC(=O)NS(=O)(=O)c2cccc(Cl)c2)CC1)NS(=O)(=O)c1cccc(Cl)c1` the same measures were 0.028 µM and 0.016 µM.
For `O=C(NCCCCNC(=O)NS(=O)(=O)c1cccc(Cl)c1)NS(=O)(=O)c1cccc(Cl)c1` the same measures were 2.75 µM and 0.264 µM.
Take `O=C(NCCCCCNC(=O)NS(=O)(=O)c1cccc(Cl)c1)NS(=O)(=O)c1cccc(Cl)c1`: the values for the half-maximal inhibitory concentration (IC50) in data set [1] and in data set [2] were 0.05 µM and 0.019 µM, respectively.
For `Cc1cccc(S(=O)(=O)NC(=O)NCCCCCNC(=O)NS(=O)(=O)c2cccc(C)c2)c1` the same measures were 0.072 µM and 0.022 µM.
With `Cc1cccc(S(=O)(=O)NC(=O)NCCOCCNC(=O)NS(=O)(=O)c2cccc(C)c2)c1`, the 50% inhibitory concentration (IC50) in data set [1] is 0.827 µM; in data set [2], 0.151 µM.
`O=C(NCCCCCCCCNC(=O)NS(=O)(=O)c1cccc(Cl)c1)NS(=O)(=O)c1cccc(Cl)c1`: the IC50 was determined as 0.045 µM in data set [1] and 0.017 µM in data set [2].
Taken in the same sequence, the figures for `O=C(NCC/C=C/CCNC(=O)NS(=O)(=O)c1cccc(Cl)c1)NS(=O)(=O)c1cccc(Cl)c1` were 0.04 µM and 0.014 µM.
Broadly, the pKa is the pH at which an ionisable group is half protonated. As a reminder, the logD is the decadic logarithm of the distribution of all forms, ionised or not, between an organic phase and buffer at a given pH. As a reminder, the half-life is the time needed for the level to fall by half in the phase considered. In the case of `O=C(NCCCCCCNC(=O)NS(=O)(=O)c1cccc(Cl)c1)NS(=O)(=O)c1cccc(Cl)c1`, the IC50 in data set [2] came out at 0.008 µM. The compound also showed a pKa in data set [3] of 5.35. This compound also gave a log distribution coefficient (logD) in data set [4] of -0.93. Moreover, the bioavailability in data set [5] was found to be 108%. The compound further had a half-life in data set [6] of 1.83 h.
Regarding `Cc1cccc(S(=O)(=O)NC(=O)NCCCCCCNC(=O)NS(=O)(=O)c2cccc(C)c2)c1`, the IC50 in data set [1] was 0.024 µM; in data set [2], 0.012 µM.
For `CCCCNC(=O)NS(=O)(=O)c1cccc(Cl)c1` the same measures were 196 µM and 134 µM.
Taken in the same sequence, the figures for `CCCNC(=O)NS(=O)(=O)c1cccc(Cl)c1` were 690 µM and 234 µM.
On to `O=C(NCCCCCCCNC(=O)NS(=O)(=O)c1cccc(Cl)c1)NS(=O)(=O)c1cccc(Cl)c1`, for which, in data set [2], the IC50 is 0.004 µM. Besides, the pKa in data set [3] worked out at 5.12. This compound gave a logD in data set [4] of -0.43.
On to `Cc1cccc(S(=O)(=O)NC(=O)NCCCCCCCNC(=O)NS(=O)(=O)c2cccc(C)c2)c1`, for which the IC50 in data set [1] amounted to 0.012 µM; in data set [2], 0.005 µM. Further, in data set [7], the bioavailability amounted to 100%. The half-life in data set [8] is 3 h.
Consider `O=C(NCCCNCCCNC(=O)NS(=O)(=O)c1cccc(Cl)c1)NS(=O)(=O)c1cccc(Cl)c1`, for which the values for the IC50 in data set [1] and in data set [2] were 43.8 µM and 13.7 µM, respectively.
Regarding `Cc1cccc(S(=O)(=O)NC(=O)NCCNCCNC(=O)NS(=O)(=O)c2cccc(C)c2)c1`, the half-maximal inhibitory concentration (IC50) in data set [1] and in data set [2] was greater than 100 µM each time.
As to `Cc1cccc(S(=O)(=O)NC(=O)NCCSSCCNC(=O)NS(=O)(=O)c2cccc(C)c2)c1`, the figures for the IC50 in data set [1] and in data set [2] were 0.029 µM and 0.012 µM, respectively.
For `O=C(NCCCOCCCNC(=O)NS(=O)(=O)c1cccc(Cl)c1)NS(=O)(=O)c1cccc(Cl)c1` the same measures were 0.125 µM and 0.057 µM.
For `CCCCNC(=O)NS(=O)(=O)c1cccc(C)c1` the same measures were 178 µM and 86.8 µM.
Take `Cc1cccc(S(=O)(=O)NC(=O)NCCS)c1`: the results for the IC50 in data set [1] and in data set [2] were 20.5 µM and 10.6 µM, respectively.
For `O=C(NCc1ccc(CNC(=O)NS(=O)(=O)c2cccc(Cl)c2)cc1)NS(=O)(=O)c1cccc(Cl)c1` the same measures were 0.006 µM and 0.004 µM.
Taken in the same sequence, the figures for `Cc1cccc(S(=O)(=O)NC(=O)NCc2ccc(CNC(=O)NS(=O)(=O)c3cccc(C)c3)cc2)c1` were 0.003 µM and 0.002 µM.
Taken in the same sequence, the figures for `Cc1cccc(S(=O)(=O)NC(=O)NCc2cccc(CNC(=O)NS(=O)(=O)c3cccc(C)c3)c2)c1` were 0.012 µM and 0.006 µM.
Consider `Cc1cccc(S(=O)(=O)NC(=O)NCCNC(=O)NS(=O)(=O)c2cccc(C)c2)c1`, for which the IC50 in data set [1] and in data set [2] was greater than 100 µM throughout.
In turn, `Nc1ccc(S(=O)(=O)NC(=O)NCCS)cc1` showed a half-inhibitory concentration (IC50) in data set [1] of 1.6 µM.
Take `Cc1cccc(S(=O)(=O)NC(=O)NCCCNC(=O)NS(=O)(=O)c2cccc(C)c2)c1`: the figures for the IC50 in data set [1] and in data set [2] were greater than 100 µM and 38.5 µM, respectively.
As for `CSCCNC(=O)NS(=O)(=O)c1cccc(Cl)c1`, the IC50 in data set [1] amounted to 515 µM; in data set [2], 277 µM.
Turning to `CCCNC(=O)NS(=O)(=O)c1cccc(C)c1`, the results for the IC50 in data set [1] and in data set [2] were greater than 1000 µM and 320 µM, respectively.
Taken in the same sequence, the figures for `Cc1cccc(S(=O)(=O)NC(=O)NCCSCCNC(=O)NS(=O)(=O)c2cccc(C)c2)c1` were 0.07 µM and 0.018 µM.
Taken in the same sequence, the figures for `Cc1cccc(S(=O)(=O)NC(=O)NCCCCCCCCNC(=O)NS(=O)(=O)c2cccc(C)c2)c1` were 0.035 µM and 0.008 µM.
Take `O=C(NCCSSCCNC(=O)NS(=O)(=O)c1cccc(Cl)c1)NS(=O)(=O)c1cccc(Cl)c1`: the concentration for half-maximal inhibition (IC50) in data set [1] was determined as 0.055 µM; in data set [2], 0.01 µM.
As to `Cc1cccc(S(=O)(=O)NC(=O)NCCCCNC(=O)NS(=O)(=O)c2cccc(C)c2)c1`, the IC50 was found to be 3.4 µM in data set [1] and 0.542 µM in data set [2].
